In patent publication US20200045961A1, “HERBICIDAL MIXTURE FOR USE ON WEEDS” (Adama Agan Ltd., priority 2017, published 2020):

Legend:
Assay in all cases: Field trial, tank mix of Propaquizafop + Fomesafen on Soybean, weed control
Format in all cases: in vivo
Commelina benghalensis = system: Commelina benghalensis
Description: (§1) In the context of the present subject matter, the term “synergy” is as defined by Colby S. R. in an article entitled “Calculation of the synergistic and antagonistic responses of herbicide combinations” published in the journal Weeds, 1967, 15, p. 20-22, incorporated herein by reference in its entirety. The action expected for a given combination of […] active ingredients can be calculated as follows: […]
(§2) When the percentage of herbicidal control observed for the combination is greater than the expected percentage, there is a synergistic effect. When the percentage of control observed for the combination is equal to the expected percentage, there is an additive effect and wherein the percentage of herbicidal control observed for the combination is lower than the expected percentage, there is an antagonistic effect.
(§3) The herbicides were applied using the following applications rates:
(§4) The applications were applied 20 DAS. Design & Plot size: RBD & 25 Sq.mt.
(§5) Species wise weed count may be recorded at 15, 30 and 45 DAA (Days After Application). A subjective score of damage done by the herbicide on the plants may be given based on the weed count compared to the untreated checks. A score of 100% indicated complete control and a score of 0% indicates zero herbicide effect.
(§6) The % control observed may be calculated as follows: […]
(§7) The synergy of the mixture of fomesafen and propaquizafop may be calculated using the formula: […]

Acalypha indica = system: Acalypha indica
Description: as §1, §2, §3, §4, §5, §6, §7

Eleusine indica = system: Eleusine indica
Description: as §1, §2, §3, §4, §5, §6, §7

Echinochloa colona = system: Echinochloa colona
Description: as §1, §2, §3, §4, §5, §6, §7

Digera arvensis = system: Digera arvensis
Description: as §1, §2, §3, §4, §5, §6, §7

Amaranthus viridis = system: Amaranthus viridis
Description: as §1, §2, §3, §4, §5, §6, §7

Dinebra arabica = system: Dinebra arabica
Description: as §1, §3, §4, §5

CS(=O)(=O)NC(=O)c1cc(Oc2ccc(C(F)(F)F)cc2Cl)ccc1[N+](=O)[O-] [Fomesafen, 5-[2-chloro-4-(trifluoromethyl)phenoxy]-N-(methylsulfonyl)-2-nitrobenzamide]
% control observed (Commelina benghalensis; 500 ml/Acre, 15DAA): 66.2% | % control observed (Commelina benghalensis; 500 ml/Acre, 30DAA): 64.2% | % control observed (Commelina benghalensis; 500 ml/Acre, 45DAA): 62.7% | % control observed (Commelina benghalensis; 750 ml/Acre, 15DAA): 72.8% | % control observed (Commelina benghalensis; 750 ml/Acre, 30DAA): 70.2% | % control observed (Commelina benghalensis; 750 ml/Acre, 45DAA): 69.7% | % control observed (Commelina benghalensis; 1000 ml/Acre, 15DAA): 77.8% | % control observed (Commelina benghalensis; 1000 ml/Acre, 30DAA): 75% | % control observed (Commelina benghalensis; 1000 ml/Acre, 45DAA): 72.5% | % control observed (Acalypha indica; 500 ml/Acre, 15DAA): 58.2% | % control observed (Acalypha indica; 500 ml/Acre, 30DAA): 55.4% | % control observed (Acalypha indica; 500 ml/Acre, 45DAA): 53.8% | % control observed (Acalypha indica; 750 ml/Acre, 15DAA): 63.8% | % control observed (Acalypha indica; 750 ml/Acre, 30DAA): 61.7% | % control observed (Acalypha indica; 750 ml/Acre, 45DAA): 60.6% | % control observed (Acalypha indica; 1000 ml/Acre, 15DAA): 75.9% | % control observed (Acalypha indica; 1000 ml/Acre, 30DAA): 73.6% | % control observed (Acalypha indica; 1000 ml/Acre, 45DAA): 72.6% | % control observed (Eleusine indica; 500 ml/Acre, 15DAA): 8.2% | % control observed (Eleusine indica; 500 ml/Acre, 30DAA): 4.7% | % control observed (Eleusine indica; 500 ml/Acre, 45DAA): 3.3% | % control observed (Eleusine indica; 750 ml/Acre, 15DAA): 12.6% | % control observed (Eleusine indica; 750 ml/Acre, 30DAA): 6.3% | % control observed (Eleusine indica; 750 ml/Acre, 45DAA): 5% | % control observed (Eleusine indica; 1000 ml/Acre, 15DAA): 17.1% | % control observed (Eleusine indica; 1000 ml/Acre, 30DAA): 8.9% | % control observed (Eleusine indica; 1000 ml/Acre, 45DAA): 7.5% | % control observed (Echinochloa colona; 500 ml/Acre, 15DAA): 8.91% | % control observed (Echinochloa colona; 500 ml/Acre, 30DAA): 6.65% | % control observed (Echinochloa colona; 500 ml/Acre, 45DAA): 5.02% | % control observed (Echinochloa colona; 750 ml/Acre, 15DAA): 14% | % control observed (Echinochloa colona; 750 ml/Acre, 30DAA): 10.7% | % control observed (Echinochloa colona; 750 ml/Acre, 45DAA): 7.5% | % control observed (Echinochloa colona; 1000 ml/Acre, 15DAA): 18.2% | % control observed (Echinochloa colona; 1000 ml/Acre, 30DAA): 15.8% | % control observed (Echinochloa colona; 1000 ml/Acre, 45DAA): 13.6% | % control observed (Digera arvensis; 500 ml/Acre, 15DAA): 70% | % control observed (Digera arvensis; 500 ml/Acre, 30DAA): 68.5% | % control observed (Digera arvensis; 500 ml/Acre, 45DAA): 66.6% | % control observed (Digera arvensis; 750 ml/Acre, 15DAA): 74.2% | % control observed (Digera arvensis; 750 ml/Acre, 30DAA): 71.5% | % control observed (Digera arvensis; 750 ml/Acre, 45DAA): 70.5% | % control observed (Digera arvensis; 1000 ml/Acre, 15DAA): 78.2% | % control observed (Digera arvensis; 1000 ml/Acre, 30DAA): 75.2% | % control observed (Digera arvensis; 1000 ml/Acre, 45DAA): 74% | % control observed (Amaranthus viridis; 500 ml/Acre, 15DAA): 67.7% | % control observed (Amaranthus viridis; 500 ml/Acre, 30DAA): 66.9% | % control observed (Amaranthus viridis; 500 ml/Acre, 45DAA): 64.8% | % control observed (Amaranthus viridis; 750 ml/Acre, 15DAA): 71.3% | % control observed (Amaranthus viridis; 750 ml/Acre, 30DAA): 70.5% | % control observed (Amaranthus viridis; 750 ml/Acre, 45DAA): 69.1% | % control observed (Amaranthus viridis; 1000 ml/Acre, 15DAA): 74.7% | % control observed (Amaranthus viridis; 1000 ml/Acre, 30DAA): 73.7% | % control observed (Amaranthus viridis; 1000 ml/Acre, 45DAA): 71.1% | % control observed (Dinebra arabica; 500 ml/Acre, 15DAA): 2.62% | % control observed (Dinebra arabica; 500 ml/Acre, 45DAA): 0.21% | % control observed (Dinebra arabica; 750 ml/Acre, 15DAA): 15.2% | % control observed (Dinebra arabica; 750 ml/Acre, 30DAA): 11.1% | % control observed (Dinebra arabica; 750 ml/Acre, 45DAA): 10% | % control observed (Dinebra arabica; 1000 ml/Acre, 15DAA): 23.4% | % control observed (Dinebra arabica; 1000 ml/Acre, 30DAA): 16.4% | % control observed (Dinebra arabica; 1000 ml/Acre, 45DAA): 14.3%

CC(C)=NOCCOC(=O)[C@@H](C)Oc1ccc(Oc2cnc3cc(Cl)ccc3n2)cc1 [Propaquizafop, (R)-2-[[(1-methylethylidene)amino]oxy]ethyl 2-[4-[(6-chloro-2-quinoxalinyl)oxy]phenoxy]propanoate]
% control observed (Commelina benghalensis; 400 ml/Acre, 15DAA): 6.8% | % control observed (Commelina benghalensis; 400 ml/Acre, 30DAA): 3.2% | % control observed (Commelina benghalensis; 400 ml/Acre, 45DAA): 2% | % control observed (Commelina benghalensis; 500 ml/Acre, 15DAA): 16.6% | % control observed (Commelina benghalensis; 500 ml/Acre, 30DAA): 10.5% | % control observed (Commelina benghalensis; 500 ml/Acre, 45DAA): 7.7% | % control observed (Acalypha indica; 400 ml/Acre, 15DAA): 7.1% | % control observed (Acalypha indica; 400 ml/Acre, 30DAA): 3.7% | % control observed (Acalypha indica; 400 ml/Acre, 45DAA): 2.9% | % control observed (Acalypha indica; 500 ml/Acre, 15DAA): 25.2% | % control observed (Acalypha indica; 500 ml/Acre, 30DAA): 12.3% | % control observed (Acalypha indica; 500 ml/Acre, 45DAA): 9.8% | % control observed (Eleusine indica; 400 ml/Acre, 15DAA): 64% | % control observed (Eleusine indica; 400 ml/Acre, 30DAA): 56.7% | % control observed (Eleusine indica; 400 ml/Acre, 45DAA): 53.4% | % control observed (Eleusine indica; 500 ml/Acre, 15DAA): 65.5% | % control observed (Eleusine indica; 500 ml/Acre, 30DAA): 57.7% | % control observed (Eleusine indica; 500 ml/Acre, 45DAA): 55.2% | % control observed (Echinochloa colona; 400 ml/Acre, 15DAA): 72.9% | % control observed (Echinochloa colona; 400 ml/Acre, 30DAA): 70.8% | % control observed (Echinochloa colona; 400 ml/Acre, 45DAA): 70.4% | % control observed (Echinochloa colona; 500 ml/Acre, 15DAA): 75.8% | % control observed (Echinochloa colona; 500 ml/Acre, 30DAA): 73.9% | % control observed (Echinochloa colona; 500 ml/Acre, 45DAA): 72.9% | % control observed (Digera arvensis; 400 ml/Acre, 15DAA): 13.9% | % control observed (Digera arvensis; 400 ml/Acre, 30DAA): 9.3% | % control observed (Digera arvensis; 400 ml/Acre, 45DAA): 2.1% | % control observed (Digera arvensis; 500 ml/Acre, 15DAA): 19.5% | % control observed (Digera arvensis; 500 ml/Acre, 30DAA): 15.5% | % control observed (Digera arvensis; 500 ml/Acre, 45DAA): 14.4% | % control observed (Amaranthus viridis; 400 ml/Acre, 15DAA): 8.2% | % control observed (Amaranthus viridis; 400 ml/Acre, 30DAA): 2.6% | % control observed (Amaranthus viridis; 400 ml/Acre, 45DAA): 2.3% | % control observed (Amaranthus viridis; 500 ml/Acre, 15DAA): 13.6% | % control observed (Amaranthus viridis; 500 ml/Acre, 30DAA): 7.6% | % control observed (Amaranthus viridis; 500 ml/Acre, 45DAA): 7.1% | % control observed (Dinebra arabica; 400 ml/Acre, 15DAA): 68.2% | % control observed (Dinebra arabica; 400 ml/Acre, 30DAA): 67% | % control observed (Dinebra arabica; 400 ml/Acre, 45DAA): 65% | % control observed (Dinebra arabica; 500 ml/Acre, 15DAA): 72.3% | % control observed (Dinebra arabica; 500 ml/Acre, 30DAA): 69.1% | % control observed (Dinebra arabica; 500 ml/Acre, 45DAA): 66%
